From paper PMC8286840, “Identifying SARS-CoV-2 antiviral compounds by screening for small molecule inhibitors of Nsp3 papain-like protease” (Biochemical Journal, 2021)
Counter-ions that a name gives are not always drawn. Like-named read-outs stand apart in the source and are kept apart here. Where a SMILES comes first, the peptide text is derived from it. [ ]: non-standard residue; d: D form. The star is where a group is joined. Dolaproine = CO[C@@H]([C@@H]1CCCN1)[C@@H](C)C(=O)O; Hexanoyl(6-maleimido) = O=C1C=CC(=O)N1CCCCCC(=O)*; Dil = CC[C@H](C)[C@H](NC)[C@@H](CC(=O)O)OC; Doe = c1ccc(C[C@H](N*)c2nccs2)cc1; NMeV = CN[C@H](C(=O)O)C(C)C

Columns and labels:
[1] = target: T1, SARS-CoV-2 PLpro (nsp3 1564–1878) (Severe acute respiratory syndrome coronavirus 2, UniProt P0DTD1); assay: biochemical; design: FRET-quenched peptide (Pro3) cleavage by PLpro, 10 min pre-incubation, slope over 20 min, normalised to no-compound control; details: high concentration screen, read-out: % of control remaining
[2] = target: T1, SARS-CoV-2 PLpro (nsp3 1564–1878); assay: biochemical; design: FRET-quenched peptide (Pro3) cleavage by PLpro, 10 min pre-incubation, slope over 20 min, normalised to no-compound control; details: low concentration screen, read-out: % of control remaining

COC(=O)Nc1nc2cc(C(=O)c3ccc(F)cc3)ccc2[nH]1 [Flubendazole]
remaining activity at 3.75 µM ([1]; Well no.=2128): 103% | remaining activity at 1.25 µM ([2]; Well no.=2128): 101%

O=C1c2c(O)cc(O)cc2O[C@H](c2cc(O)c(O)c(O)c2)[C@H]1O [(2R,3R)-3,5,7-trihydroxy-2-(3,4,5-trihydroxyphenyl)-2,3-dihydro-4H-chromen-4-one]
remaining activity at 3.75 µM ([1]; Well no.=5388): 111% | remaining activity at 1.25 µM ([2]; Well no.=5388): 106%

O=C(O)c1ccc(C(=O)O)cc1 [Terephthalic acid]
remaining activity at 3.75 µM ([1]; Well no.=7501): 103% | remaining activity at 1.25 µM ([2]; Well no.=7501): 106%

C[C@]12CCC(=O)C=C1CC[C@@H]1[C@@H]2CC[C@]2(C)C(=O)CC[C@@H]12 [4-Androstene-3,17-dione]
remaining activity at 3.75 µM ([1]; Well no.=154): 99.2% | remaining activity at 1.25 µM ([2]; Well no.=154): 103%

CC[C@H](C)[C@@H]([C@@H](CC(=O)N1CCC[C@H]1[C@H](OC)[C@@H](C)C(=O)N[C@@H](Cc1ccccc1)c1nccs1)OC)N(C)C(=O)[C@@H](NC(=O)[C@H](C(C)C)N(C)C(=O)CCCCCN1C(=O)C=CC1=O)C(C)C [Mc-MMAD] ({Hexanoyl(6-maleimido)}-[NMeV]V[Dil][Dolaproine]-Doe)
remaining activity at 3.75 µM ([1]; Well no.=8610): 91.2% | remaining activity at 1.25 µM ([2]; Well no.=8610): 95.3%

CCCc1cc(=O)[nH]c(=S)[nH]1 [Propylthiouracil]
remaining activity at 3.75 µM ([1]; Well no.=4670): 94.9% | remaining activity at 1.25 µM ([2]; Well no.=4670): 98.7%

O=C(Nc1cccnc1)N1CCC(Cc2cccc(Oc3ccc(C(F)(F)F)cn3)c2)CC1 [PF-3845]
remaining activity at 3.75 µM ([1]; Well no.=4643): 90.4% | remaining activity at 1.25 µM ([2]; Well no.=4643): 96.6%

N#C/C(=C\c1ccc(O)c(O)c1)C(=O)NCc1ccccc1 [AG 490]
remaining activity at 3.75 µM ([1]; Well no.=2607): 97% | remaining activity at 1.25 µM ([2]; Well no.=2607): 95.5%

C[C@H](NC(=O)[C@@H](N)CCC(=O)O)C(=O)O [_-L-Glutamyl-L-alanine] (H-Glu-Ala-OH)
remaining activity at 3.75 µM ([1]; Well no.=7750): 104% | remaining activity at 1.25 µM ([2]; Well no.=7750): 105%

Cc1ccc(S(=O)(=O)NC(=O)NN2CC3CCC[C@@H]3C2)cc1 (stereo in doubt) [Gliclazide]
remaining activity at 3.75 µM ([1]; Well no.=2176): 102% | remaining activity at 1.25 µM ([2]; Well no.=2176): 101%

COc1cc2nccc(Oc3ccc(NC(=S)NC(=O)c4ccccc4C)cc3)c2cc1OC [PDGF RTK Inhibitor]
remaining activity at 3.75 µM ([1]; Well no.=2509): 101% | remaining activity at 1.25 µM ([2]; Well no.=2509): 104%

C=CC(=O)Nc1ccc2ncnc(Nc3ccc(OCc4cccc(F)c4)c(Cl)c3)c2c1 [AST-1306]
remaining activity at 3.75 µM ([1]; Well no.=5142): 100% | remaining activity at 1.25 µM ([2]; Well no.=5142): 101%

O=c1cccc2n1C[C@H]1CNC[C@H]2C1 [(-)-Cytisine]
remaining activity at 3.75 µM ([1]; Well no.=3797): 101% | remaining activity at 1.25 µM ([2]; Well no.=3797): 97.8%

CCC(C)(O)C(=O)O (stereo not shown) [2-Hydroxy-2-methylbutanoic acid]
remaining activity at 3.75 µM ([1]; Well no.=6357): 93.4% | remaining activity at 1.25 µM ([2]; Well no.=6357): 96.5%

COC(=O)[C@]1(O)C[C@@H]2O[C@@]1(C)n1c3ccccc3c3c4c(c5c6ccccc6n2c5c31)C(=O)NC4 [K-252a, Nocardiopsis sp.]
remaining activity at 3.75 µM ([1]; Well no.=2552): 95.2% | remaining activity at 1.25 µM ([2]; Well no.=2552): 95.7%

CC(=O)CC(=O)CCC(=O)O [4,6-Dioxoheptanoic acid]
remaining activity at 3.75 µM ([1]; Well no.=7261): 102% | remaining activity at 1.25 µM ([2]; Well no.=7261): 102%

c1ccc2[nH]c(-c3cscn3)nc2c1 [Thiabendazole]
remaining activity at 3.75 µM ([1]; Well no.=4622): 98.1% | remaining activity at 1.25 µM ([2]; Well no.=4622): 100%

CN1C(=O)[C@@H](NC(=O)c2n[nH]c(Cc3ccccc3)n2)COc2ccccc21 [GSK2982772]
remaining activity at 3.75 µM ([1]; Well no.=7074): 95.1% | remaining activity at 1.25 µM ([2]; Well no.=7074): 96.7%

COc1cc2c3cc1Oc1c(OC)c(OC)cc4c1[C@@H](Cc1ccc(OC(=O)c5ccc([N+](=O)[O-])cc5)c(c1)Oc1ccc(cc1)C[C@@H]3N(C)CC2)N(C)CC4 [E6 Berbamine]
remaining activity at 3.75 µM ([1]; Well no.=3237): 95% | remaining activity at 1.25 µM ([2]; Well no.=3237): 97.5%

CCCCC[C@H](O)/C=C/[C@@H]1[C@H]2C/C(=C/CCCC(=O)O)O[C@H]2C[C@H]1O [Prostaglandin I2 Na]
remaining activity at 3.75 µM ([1]; Well no.=4483): 102% | remaining activity at 1.25 µM ([2]; Well no.=4483): 99%

NCCc1c[nH]c2ccc(O)cc12 [Serotonin hydrochloride]
remaining activity at 3.75 µM ([1]; Well no.=616): 100% | remaining activity at 1.25 µM ([2]; Well no.=616): 98.2%

O=C(O)Cn1nnc(-c2cc(N3CCC(Oc4cc(F)ccc4Br)CC3)no2)n1 [MK-8245]
remaining activity at 3.75 µM ([1]; Well no.=4842): 85.1% | remaining activity at 1.25 µM ([2]; Well no.=4842): 90.5%

N#C/C(=C\c1ccc(O)c(O)c1)C(=O)N1CCc2ccccc21 [Tyrphostin AG 528]
remaining activity at 3.75 µM ([1]; Well no.=1193): 93.3% | remaining activity at 1.25 µM ([2]; Well no.=1193): 92.5%

CCCCOc1cc(CC2CNC(=O)N2)ccc1OC (stereo not shown) [Ro 20-1724]
remaining activity at 3.75 µM ([1]; Well no.=225): 100% | remaining activity at 1.25 µM ([2]; Well no.=225): 102%

O=C(c1ccc(F)cc1)C1CCN(CCn2c(=O)[nH]c3ccccc3c2=O)CC1 [Ketanserin (tartrate)]
remaining activity at 3.75 µM ([1]; Well no.=6519): 103% | remaining activity at 1.25 µM ([2]; Well no.=6519): 100%

CNC(=O)c1cc(Oc2ccc(NC(=O)Nc3ccc(Cl)c(C(F)(F)F)c3)cc2)ccn1 [Sorafenib]
remaining activity at 3.75 µM ([1]; Well no.=2941): 97.8% | remaining activity at 1.25 µM ([2]; Well no.=2941): 101%

CNc1nc(-c2ccc3c(N)n[nH]c3c2)cc(N2C[C@@H](C(=O)NC3CCCCC3)CC[C@H]2C)n1 [GSK2334470]
remaining activity at 3.75 µM ([1]; Well no.=5464): 101% | remaining activity at 1.25 µM ([2]; Well no.=5464): 94.9%

CCCC(CCC)C(N)=O [Valpromide]
remaining activity at 3.75 µM ([1]; Well no.=5383): 109% | remaining activity at 1.25 µM ([2]; Well no.=5383): 103%

O=C(CCCCCCC(=O)Nc1ccccc1)NO [Vorinostat (SAHA)]
remaining activity at 3.75 µM ([1]; Well no.=1866): 82.8% | remaining activity at 1.25 µM ([2]; Well no.=1866): 87.6%

CCCCCCCCCCCCCCC[C@@H](O)[C@H](CO)NC(=O)CCCCCCC [C8 Dihydroceramide]
remaining activity at 3.75 µM ([1]; Well no.=4395): 99.1% | remaining activity at 1.25 µM ([2]; Well no.=4395): 99.8%

CCCCS(=O)(=O)N[C@@H](Cc1ccc(OCCCCC2CCNCC2)cc1)C(=O)O [Tirofiban hydrochloride monohydrate]
remaining activity at 3.75 µM ([1]; Well no.=5469): 99.6% | remaining activity at 1.25 µM ([2]; Well no.=5469): 95.9%

CC(C)c1ccc2c(c1)c(SC(C)(C)C)c(CC(C)(C)C(=O)O)n2Cc1ccc(Cl)cc1 [MK-886]
remaining activity at 3.75 µM ([1]; Well no.=1018): 104% | remaining activity at 1.25 µM ([2]; Well no.=1018): 105%

O=C(O)c1cc(=O)cc(C(=O)O)o1 [Chelidonic acid]
remaining activity at 3.75 µM ([1]; Well no.=6682): 102% | remaining activity at 1.25 µM ([2]; Well no.=6682): 102%

CCCCCN(CCCCC)C(=O)C(CCC(=O)O)NC(=O)c1ccc(Cl)c(Cl)c1 (stereo not shown) [Lorglumide]
remaining activity at 3.75 µM ([1]; Well no.=2276): 98.3% | remaining activity at 1.25 µM ([2]; Well no.=2276): 96.2%

N=C(N)NC(=O)c1nc(Cl)c(N)nc1N [Amiloride HCl dihydrate]
remaining activity at 3.75 µM ([1]; Well no.=5290): 100% | remaining activity at 1.25 µM ([2]; Well no.=5290): 101%
